Measurements taken from publication PMC12648864 (Biology of Sex Differences, 2025).
Where “and” joins values, the source holds several entries; their conditions need not be identical. Equal values may be shown once. Read-outs that look alike come from different tables or passages of the source.

Tested on: plasma metabolites
Assay type: in vivo, rat
Procedure: Male and female SD rats were divided into experimental and control groups. Each group contained 10 male and 10 female rats. […] Blood was collected from orbital vein into sodium heparin-coated centrifugal tubes pre-chilled at 4 ℃, at 30 min, 2 h, and 12 h post-administration respectively. Plasma was separated by gentle inversion, immediately quenched in liquid nitrogen, and centrifuged at 1500 g for 10 min at 4 ℃. The prepared plasma was stored at − 80 ℃ until LC-MS/MS analysis.
The stored plasma samples were thawed at 4 °C, and 100 µL of each sample was transferred to a centrifuge tube. Proteins were precipitated using 1 mL of methanol/acetonitrile/water solution (2:2:1, v: v:v) at 4 °C. After vortex mixing, the sample mixture was sonicated for 30 min (ice was used to maintain the low-temperature conditions). The sonicated mixture was allowed to stand for 10 min at […], then centrifuged at 14,000 g for 20 min at 4 °C. The resulting supernatant was collected and dried under vacuum. For instrumental analysis, the dried supernatant was reconstituted in 100 µL of aqueous acetonitrile solution, vortexed, then centrifuged at 14,000 g for 15 min at 4 °C. To ensure instrument stability and data reliability, quality control samples were prepared and analyzed using random sampling.
Chromatographic conditions: separation was performed in a Waters Acquity UPLC BEH Amide column (1.7 μm, 2.1 × 100 mm). The column temperature was 25 ℃ and flow rate was 0.5 mL/min. The injection volume was 2 µL, with the mobile phases consisting of A: water + 25 mM ammonium acetate + 25 mM ammonia, and B: acetonitrile. The gradient elution program was as follows: 0–0.5 min, 95% B; 0.5–7 min, 95%−65% B; 7–8 min, 65%−40% B; 8–9 min, 40% B; 9–9.1 min, 40%−95%B; 9.1–12 min, 95%B.
MS conditions: Detection was carried out using electrospray ionization in both positive and negative ion modes. The following parameters were used: spray voltage, ± 5500 V; ionization temperature, 600 ℃; nebulization air pressure, 60 psi; auxiliary air pressure, 60 psi; air curtain air pressure, 30 psi; time-of-flight MS scanning range (m/z), 60–1000 Da; product ion scanning range, 25–1000 Da. The secondary mass spectra were acquired using information-dependent acquisition in high-resolution mode. The cone bore voltage was ± 60 V (positive and negative modes) and collision energy was 35 ± 15 eV.
Orthogonal partial least squares-discriminant analysis (OPLS-DA) were computed for control female and male rats. […] Differential metabolites were identified using stringent criteria: variable importance in projection (VIP) scores > 1 and statistically significant from t-test.
OPLS-DA scores were calculated for the control group and experimental male rats. […] Differential metabolites were identified using stringent selection criteria: VIP scores > 1.0 and P < 0.05, as derived from the OPLS-DA model.
We performed pairwise comparisons of metabolites between male and female rats in the experimental and control groups. […] We performed KEGG enrichment analysis on metabolites that differed between male and female rats in the experimental group (Fig. 6G-I).

[1] = male rats, test (TM3) vs control (BM3), 30 minutes, plasma
[2] = female rats, 30 minutes, test group (TF3, strychnine) vs control group (BF3), plasma metabolite
[3] = male rats, test (TM5) vs control (BM5), 2 hours, plasma
[4] = female rats, 2 hour, test group (TF5, strychnine) vs control group (BF5), plasma metabolite
[5] = female rats, 12 hour, test group (TF8, strychnine) vs control group (BF8), plasma metabolite
[6] = male rats, test (TM8) vs control (BM8), 12 hours, plasma

SMILES | Fold change [2] | Fold change [5] | Fold change [6] | further results
CCCCCCCC/C=C\CCCCCCCC(=O)O[C@H](COC(=O)CCCCCCCCCCCCCCCCC)COP(=O)([O-])OCC[N+](C)(C)C |  |  |  | Fold change [1]: 0.7683
CCCCCCCC/C=C\CCCCCCCC(=O)OC[C@H](COP(=O)([O-])OCC[N+](C)(C)C)OC(=O)CCCCCCC/C=C\CCCCCCCC | 0.7409 |  |  | Fold change [1]: 1.344
CCCCC/C=C\C/C=C\CCCCCCCC(=O)OCC(O)CO (racemic) [MG(18:2(9Z,12Z)/0:0/0:0)[rac]] |  |  |  | Fold change [1]: 0.8489
C[n+]1cccc(C(N)=O)c1 [1-Methylnicotinamide] |  |  |  | Fold change [3]: 1.347
CCCCCCCCCCCCCC(=O)OC[C@@H](O)COP(=O)([O-])OCC[N+](C)(C)C [1-Myristoyl-sn-glycero-3-phosphocholine] | 0.7956 | 0.767 | 1.421 | Fold change [4]: 0.6202; Fold change [1]: 1.568
CCCCCCCC/C=C\CCCCCCCC(=O)OC[C@@H](O)COP(=O)([O-])OCC[N+](C)(C)C [1-Oleoyl-sn-glycero-3-phosphocholine] | 0.8445 |  |  | 
CCCCCCCCCCCCCCCC(=O)OCC(O)CO (stereo not shown) [1-Palmitoylglycerol] | 0.3279 | 1.171 |  | Fold change [3]: 0.6081
CCCCCCCCCCCCCCCC(=O)OC[C@@H](O)COP(=O)([O-])OCC[N+](C)(C)C [1-Palmitoyllysophosphatidylcholine] |  |  |  | Fold change [3]: 1.155
CCCCCCCCCCCCCCCCCC(=O)OC[C@@H](O)COP(=O)([O-])OCC[N+](C)(C)C [1-Stearoyl-sn-glycerol 3-phosphocholine] |  |  | 0.2224 | Fold change [1]: 0.8936
C=C1CC[C@H](O)C/C1=C/C=C1\CCC[C@]2(C)[C@@H]([C@H](C)CCCC(C)C)CC[C@@H]12 [Cholecalciferol (Vitamin D3)] | 1.921 |  |  | Fold change [3]: 1.578
O=C(O)[C@H]1CCCCN1 [D-Pipecolinic acid] | 2.231 |  |  | Fold change [4]: 1.817
CCCC[C@H](N)C(=O)O [L-Norleucine] | 0.6394 | 1.298 | 0.6711 | Fold change [4]: 1.28
CCCCCCCCCCCCCCCC(=O)O[C@H](CC(=O)[O-])C[N+](C)(C)C [L-Palmitoylcarnitine] | 2.52 |  |  | Fold change [4]: 1.713
O=C(O)[C@@H]1CCCCN1 [L-Pipecolic acid] | 0.7035 | 1.276 |  | Fold change [4]: 1.162
CC(C)CCC[C@@H](C)[C@H]1CC[C@H]2C3=CC[C@H]4C[C@@H](O)CC[C@]4(C)[C@H]3CC[C@]12C [Lathosterol] | 2.481 | 0.602 | 3.049 | 
CCCCCCCCCCCCC/C=C/[C@@H](O)[C@H](CO)NC(=O)CCCCCCCCCCCCCCC [N-Palmitoylsphingosine] |  |  | 1.476 | 
CN(C)C(N)=NCCC[C@H](N)C(=O)O [NG,NG-dimethyl-L-arginine(ADMA)] |  |  |  | Fold change [1]: 0.5058
CC(=O)OC[C@H](N)C(=O)O [O-Acetyl-L-serine] |  |  |  | Fold change [1]: 0.6094
CCCCCCCCCCCCCCCC(=O)OC[C@H](COP(=O)([O-])OCC[N+](C)(C)C)OC(=O)CCCCCCCCCCCCCCC [PC(16:0/16:0)] |  |  | 0.7843 | 
CSC[C@H]1O[C@@H](n2cnc3c(N)ncnc32)[C@H](O)[C@@H]1O [S-Methyl-5'-thioadenosine] |  |  | 0.6708 | 
CCCCCCCCCCCCCCC[C@@H](O)[C@@H](N)CO [Sphinganine] | 1.985 |  |  | 
CCCCCCCCCCCCC/C=C/[C@@H](O)[C@H](COP(=O)([O-])OCC[N+](C)(C)C)NC(=O)CCCCCCCCCCCCCCCCC [Sphingomyelin (d18:1/18:0)] |  |  |  | Fold change (rat, in vivo): 1.142 and 1.189
COc1ccc(-c2cc(=O)c3c(OC)c(OC)c(OC)c(OC)c3o2)cc1 [Tangeritin] |  | 9.489 | 0.02313 | Fold change [4]: 3.045
CCCCCCCCCCCCCCCCSC[C@H](COP(=O)(O)OCC[N+](C)(C)C)NC(=O)CCCCCCCCCCCCCCC [Thioetheramide-PC] |  | 1.1574 | 0.7991 | 
NC(N)=O [Urea] |  |  |  | Fold change [4]: 1.116
O=C1CCCCCN1 [epsilon-Caprolactam] | 1.263 | 0.793 |  | Fold change [3]: 0.6921
